Measured values: patent EP3026118A1, “Enzymatic process for producing 3-butenal and 3-buten-1-ol” (LANXESS Deutschland GmbH, priority 2014, dated 2016)

Target: T1, Acetaldehyd-Dehydrogenase PS-DmpF (Pseudomonas sp., UniProt Q52060)
T1 construct: made in house; host or cells: E. coli BL21 (DE3), vector pET-21a(+)
T1 sequence (Q52060 1-312): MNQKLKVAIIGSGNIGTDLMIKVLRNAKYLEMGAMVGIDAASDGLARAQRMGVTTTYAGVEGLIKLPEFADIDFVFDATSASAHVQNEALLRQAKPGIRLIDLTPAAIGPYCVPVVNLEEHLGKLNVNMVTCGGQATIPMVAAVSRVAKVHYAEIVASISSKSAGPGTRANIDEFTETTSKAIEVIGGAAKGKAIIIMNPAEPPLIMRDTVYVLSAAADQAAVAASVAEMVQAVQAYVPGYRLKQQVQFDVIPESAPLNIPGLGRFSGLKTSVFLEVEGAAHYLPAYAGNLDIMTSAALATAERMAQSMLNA
Test: photometric test of inhibition of PS-DmpF by Crotonyl-CoA in mixtures with Butyryl-CoA
Assay type: biochemical
Conditions: Butyryl-CoA and Crotonyl-CoA mixed in different ratios, Figur 4
Source text: Im Rahmen der Photometertests wurde festgestellt, dass die Acetaldehyd-Dehydrogenase DmpF aus Pseudomonas sp. keine Aktivität gegenüber Crotonyl-CoA zeigte. Daher wurde untersucht, ob Crotonyl-CoA kein Substrat für dieses Enzym darstellt oder eine inhibitorische Wirkung auf das Enzym aufweist. Dazu wurden Butyryl-CoA, welches von der Acetaldehyd-Dehydrogenase umgesetzt wird, und Crotonyl-CoA in unterschiedlichen Verhältnissen gemischt und die Aktivität der PS-DmpF gegen diese Substratmischungen untersucht (Figur 4). Die in Figur 4 zusammengefassten Ergebnisse zeigen, dass die Aktivität der PS-DmpF abnahm, je mehr Crotonyl-CoA im Ansatz enthalten ist. Dies bedeutet, dass Crotonyl-CoA inhibierend auf die Acetaldehyd-Dehydrogenase wirkt.

C/C=C/C(=O)SCCNC(=O)CCNC(=O)[C@H](O)C(C)(C)COP(=O)(O)OP(=O)(O)OC[C@H]1O[C@@H](n2cnc3c(N)ncnc32)[C@H](O)[C@@H]1OP(=O)(O)O [Crotonyl-CoA]
inhibitorische Wirkung auf das Enzym: inhibierend
